Data set [1] concerns mouse fibroblast cell line L929. Type of data set: cell-based. The text has this:
This may constitute an additional advantage for biological applications in which hydrogels are commonly used.

The nature of data set [2]: photo-DSC of hydrogel formulation with PEG700DA and 50 wt % water. As to the method: (§1) In the following examples, of the inventive use of compounds of formula (I) as photo-initiators, reaction mixtures containing the respective photoinitiator, the specified liquid monomer and optionally a specified co-intiator were produced and cured for 10 min under a nitrogen atmosphere by exposure to an OmniCure® S2000 mercury lamp having a wave length filter of 320 to 500 nm and an UV light intensity of 1 W/cm^2, while the progress of the reactions was monitored by photo-DSC type NETSCH DSC 204 F1 Phoenix.
(§2) All measurements were carried out at least twice, the respective tables showing the average values for the respective initiators.
(§3) In the tables, RP represents the polymerization rate and is thus an indicator of the reactivity of a system. A high value means that many monomer groups are reacted at the same time and that the curing process is generally shorter. tmax is the time (in s) it takes until maximum heat development is reached and is thus an indicator of how long it takes to reach the gelling point and thus a certain initial solidity. Short times are thus more desirable. t95% is the time (in s) after which 95% of the entire reaction heat have been released and is thus an indicator of the rate at which a reaction occurs, lower values again being advantageous. DBC is the double bond conversion rate calculated based on the reaction heat released during polymerization (in J per g) of the respective formulation. For the conversion rate, it is desirable to achieve values that are as high as possible.
(§4) In all formulations, the respective photoinitiator was used in an equimolar amount with respect to 1 wt % of ethyl pyruvate (1), which was the initiator having the lowest molecular weight, and weighed in accordingly, and co-initiators, if contained, were weighed in equimolar amounts with respect to the respective initiator. Subsequently, 12±0.5 mg of the reaction mixtures were weighed into DSC aluminum pans, and the pans were covered with cover glasses.
(§5) PBQ was used as a commercially available reference initiator, with MDEA as a co-initiator. The ketoesters ethyl pyruvate (1) and dimethylfurandione (8) can be used as novel initiators without any co-initiator. Due to its longwave absorption maximum (λmax=378 nm instead of 330 nm for compound (1)), compound (8) can also be used using visible light which is harmless for cells.

Data set [3] can be described thus: photo-DSC monitoring of photopolymerization in hexanediol diacrylate. Particulars: monomer HDDA. As to the method: as §1, §2, §3, §4
The nature of data set [4]: photo-DSC monitoring of photopolymerization in dental dimethacrylate mixture. Particulars: monomer DDM, co-initiator DMAB (Table 7). As to the method: All measurements were carried out at least twice, the respective tables showing the average values for the respective initiators. In the tables, RP represents the polymerization rate and is thus an indicator of the reactivity of a system. A high value means that many monomer groups are reacted at the same time and that the curing process is generally shorter. tmax is the time (in s) it takes until maximum heat development is reached and is thus an indicator of how long it takes to reach the gelling point and thus a certain initial solidity. Short times are thus more desirable. t95% is the time (in s) after which 95% of the entire reaction heat have been released and is thus an indicator of the rate at which a reaction occurs, lower values again being advantageous. DBC is the double bond conversion rate calculated based on the reaction heat released during polymerization (in J per g) of the respective formulation. For the conversion rate, it is desirable to achieve values that are as high as possible. In all formulations, the respective photoinitiator was used in an equimolar amount with respect to 1 wt % of ethyl pyruvate (1), which was the initiator having the lowest molecular weight, and weighed in accordingly, and co-initiators, if contained, were weighed in equimolar amounts with respect to the respective initiator. […] In this group of experiments, the experiments from Examples 1 to 4 and Comparative Example 1 were repeated, using a di-methacrylate mixture from the field of dental engineering as a monomer instead of the diacrylate that had been used above.

Data set [5] is described as follows: longwave absorption maximum. Type of data set: physicochemical.
Source text: as §5

The nature of data set [6]: photo-DSC monitoring of photopolymerization in divinyl adipate. Particulars: monomer DVA, co-initiator DMAB. As to the method: In the following examples, of the inventive use of compounds of formula (I) as photo-initiators, reaction mixtures containing the respective photoinitiator, the specified liquid monomer and optionally a specified co-intiator were produced and cured for 10 min under a nitrogen atmosphere by exposure to an OmniCure® S2000 mercury lamp having a wave length filter of 320 to 500 nm and an UV light intensity of 1 W/cm^2, while the progress of the reactions was monitored by photo-DSC type […]1 Phoenix. All measurements were carried out at least twice, the respective tables showing the average values for the respective initiators. In the tables, RP represents the polymerization rate and is thus an indicator of the reactivity of a system. A high value means that many monomer groups are reacted at the same time and that the curing process is generally shorter. tmax is the time (in s) it takes until maximum heat development is reached and is thus an indicator of how long it takes to reach the gelling point and thus a certain initial solidity. Short times are thus more desirable. t95% is the time (in s) after which 95% of the entire reaction heat have been released and is thus an indicator of the rate at which a reaction occurs, lower values again being advantageous. DBC is the double bond conversion rate calculated based on the reaction heat released during polymerization (in J per g) of the respective formulation. For the conversion rate, it is desirable to achieve values that are as high as possible. In all formulations, the respective photoinitiator was used in an equimolar amount with respect to 1 wt % of ethyl pyruvate (1), which was the initiator having the lowest molecular weight, and weighed in accordingly, and co-initiators, if contained, were weighed in equimolar amounts with respect to the respective initiator. Subsequently, 12±0.5 mg of the reaction mixtures were weighed into DSC aluminum pans, and the pans were covered with cover glasses.

Data set [7] in a line: curing test in silicone mold, Intelli-Ray 400 W UV oven. To be noted: 1 g HDDA with 1 wt % initiator, 100% power, after a few seconds.
Where [8] appears, read: no co-initiator listed (Table 3).

SMILES strings stand for the structures.

`CN(C)CC(O)COc1ccc(C(=O)c2ccccc2)cc1.Cl` (centres unmarked) [BPQ, 3-(4-benzoylphenoxy)-2-hydroxy-N,N-dimethylpropane-1-amine Hydrochloride, reference compound]: the “concentration at which significant toxic effects were observed” value in data set [1] came to 8000 µM. Further, in data set [2] (co-initiator MDEA), the DBC amounted to 50%, the “RP (polymerization rate)” value worked out at 30 mmol/L/s and the t95% is recorded as 87 s.

For the molecule `CCOC(=O)C(C)=O` [Compound 1, 2-Oxopropanoic Acid Ethyl Ester], in data set [3] (co-initiator DMAB), the “DBC (double bond conversion)” value was 66.5%, the “RP (polymerization rate)” value was determined as 230 mmol/L/s and the “t95% (time after which 95% of reaction heat released)” value is on record as 41.7 s. Besides, in data set [3] (setting [8]), the DBC came to 69.3%, the “RP (polymerization rate)” value came to 210 mmol/L/s and the t95% amounted to 56.0 s. For the same molecule, in data set [4], the DBC stood at 57%, the “RP (polymerization rate)” value turned out to be 74.5 mmol/L/s and the t95% came to 83.0 s. Also, the “longwave absorption maximum λmax” value in data set [5] is listed as 330 nm. In data set [6], the Area came out at 466 J/g and the DSC was 1.7 mW · mg^−1. For the same molecule, in data set [2] (without co-initiator), the DBC came to 48%, the “RP (polymerization rate)” value amounted to 33 mmol/L/s and the t95% came to 83 s.

Regarding `CC(=O)C(=O)OCCN(C)C` [Compound 10, N,N′-dimethylaminopyruvate], the “result of curing test” value in data set [7] is given as “transparent, hard sample rod was obtained”.

These data come from patent publication US11518823B2, “Photoinitiators for light-curable compositions” (priority 2017, dated 2022).
